Experimental data taken from PMC9369794 (Molecules, 2022).
≈ marks a conversion by molar mass, not a printed value.

How the values were obtained:
[1] = BBB-specific permeability assay (BBB-PAMPA); format: in vitro ADME; conditions: PBS pH 7.4, 37 °C, read-out: BBB-PAMPA Pe
Method: In vitro, blood-brain barrier-specific (BBB) permeability studies were carried out using the PAMPA technique. First, solutions with the nominal concentration of 250 μM were prepared as described in Section 3.1. The solutions were shaken for 1 h at room temperature, at 300 rpm. For preparing the artificial BBB-specific membrane 16 mg BPLE and 8 mg cholesterol were dissolved in 600 μL dodecane. Each well of the donor plate (MultiscreenTM-IP, MAIPNTR10, pore size […], Merck kGaA) was coated with 5 μL lipid solution, and fitted into the acceptor plate containing 300 μL PBS (pH 7.4) with 2.5% DMSO, and 150–150 μL of the PBS solutions (made from the DMSO stock solutions) were put on the donor plate’s artificial membrane. The sandwich plate system was covered with a tissue of wet paper and a plastic lid to avoid evaporation of the solvent, and it was incubated at 37 °C for 4 h. In the end, the donor solutions were filtrated (Vacuum Manifold, Merck kGaA), and the initial 250 μM solutions (cD(0)), the donor (cD(t)) and acceptor solution (cA(t)) were analyzed by a Multiskan Sky UV-plate-reader (Thermo Scientific) in the wavelength range of 250–700 nm, with 1 nm steps.
BBB permeability was calculated using the effective permeability equation used for iso-pH conditions described by A. Avdeef:(3) Pe=−2.303/A·(t−τss)·(1/1+rv)·lg[−rv+(1+rv/1−MR)·cD(t)/cD(0)] […]

[2] = Kinetic solubility in PBS pH 7.4; format: physicochemical; conditions: aqueous buffer, kinetic from dmso stock, kinetic solubility after 2 h, at 37 °C in PBS, nominal 250 μM, read-out: Kin.Sol.
Method: On a 96-well polypropylene plate (Greiner bio-one) 7.5 μL stock solutions were added to 292.5 μL PBS (pH 7.4) to make a solution with the nominal concentration of 250 μM. For each sample 3 replicates were measured. […] After that, each sample was transferred into a filter plate (MSSBLPC, Multiscreen Filter plate, Merck kGaA) and filtered (Vaccum Manifold, Merck kGaA, Darmstadt, Germany). The filtrates were transferred into UV-Star microplates (Greiner bio-one) and acetonitrile (AcN) was added to each well to avoid precipitation. The final solvent ratio was AcN:PBS 70:30. UV-Vis spectra were collected for each replicate by a Multiskan Sky UV-plate reader (Thermo Scientific, Waltham, MA, USA) in a wavelength range of 250–700 nm, with 1 nm steps. After blank substraction, the kinetic solubility of the samples was determined based on absorption at λmax using a 5-point calibration curve for each sample recorded in 70:30 AcN:PBS solvent.
Limit of detection (LOD) and limit of quantification (LOQ) were calculated with Equations (1) and (2) respectively, based on UV-Vis spectral data:(1) LOD=3.3×σ/s (2) LOQ=10×σ/s where the σ value in the equations stands for the standard deviation of the absorption base line at 700 nm (where no sample-specific absorption was observed). The s value is the slope of the calibration curve recorded for each sample based on their absorption at λmax (Table 4.)

Papp at 4 h, 250 μM [1]: 2.97 ± 1.18 ×10⁻⁶ cm/s
solubility kinetic at 2 h [2]: 123 ± 9.4 µM (≈ 28.6 µg/mL)
SMILES: COc1ccc2[nH]cc(CCNC(C)=O)c2c1 [Melatonin, melatonin, reference compound]
